{
  "source": "patent US20040052836A1",
  "about": "“Pharmaceutical compositions containing at least one stable liposphere having an improved shelf life” (priority 2002, published 2004)",
  "key": {"rats": {"system": "rats", "test": "Rat thermal paw flick anesthesia study", "type": "in vivo", "conditions": "intraplantar injection 100 μL", "protocol": "Liposphere containing bupivacaine (3%), tristearin (6%), and DMPC (0.75%) was tested for its local anesthetic activity in rats. Its activity was compared with that of bupivacaine HCL (3%) solution. The liposphere formulation was prepared as described in Example 1. Adult rats were given an intraplantar injection of 100 μL of either liposphere formulation or bupivacaine HCl solution. Animals were then individually placed into a Hargreaves “hotbox,” in which a beam of light, as a heat source, was focused on the plantar surface of the injected paw at various intervals after treatment. The latency for the rat to withdraw its paw was recorded, up to a maximum of 20 seconds. The earliest time point examined in these studies was 30 min. The latest time point was 120 min for animals treated with bupivacaine HCl solution (by which time latencies had returned to predrug baseline levels), and 1440 min for animals treated with liposphere formulation."}, "guinea pigs": {"system": "guinea pigs", "test": "Guinea pig wheal anesthesia study (pin-prick)", "type": "in vivo", "conditions": "subcutaneous 300 μL; 3% liposphere (p<0.043) or 0.5% bupivacaine HCl solution (p<0.008); 1-tailed test; FIG. 3", "protocol": "Liposphere formulation containing bupivacaine (3%), tristearin (6%), and DMPC (0.75%) and the liposphere vehicle containing tristearin (6%) and DMPC (0.75%) were evaluated for their anesthesia activities in guinea pigs. The liposphere formulation and vehicle were prepared as described in Example 1. In addition, a solution of bupivacaine HCl (0.5%) and its vehicle (normal saline solution) were evaluated for comparison. In this example, adult guinea pigs were randomly assigned to one of two groups, with each group receiving two subcutaneous injections: one of vehicle and one of the test articles. Half of the animals in each group were given the vehicle on the left side and the test article on the right side. The other half were given the test article on the left side and the vehicle on the right. Injection volume was 300 μL. There were two injections given to each animal. Both groups consisted of eight animals, four of each group received an injection of the vehicle on the left side of the spine, and the remaining four animals received an injection of the vehicle on the right side. […] The “anesthetic action” (the ability of local anesthetics to block the skin reflex in guinea pigs) was determined using the “pin-prick” method. […] The ability of the test compound to block the twitch responses of the guinea pig to six probings with a carefully calibrated needle algesimeter was evaluated. […]"}},
  "note": "Counter-ions that a name gives are not always drawn.",
  "data": [
    {"smiles": "CCCCN1CCCCC1C(=O)Nc1c(C)cccc1C", "note": "(stereo not drawn) [bupivacaine HCl solution, bupivacaine HCl]", "values": [
      {"measurement": "duration of anesthesia post injection", "setting": "rats; 3% bupivacaine liposphere or 3% bupivacaine HCl solution, paw withdrawal latency, FIG. 2", "value": "up to 60 min"},
      {"measurement": "time by which latencies had returned to predrug baseline levels", "setting": "rats; bupivacaine HCl 3% solution", "value": "≤ 120", "unit": "min"},
      {"measurement": "duration of statistically significant anesthesia compared to vehicle", "setting": "guinea pigs", "value": "up to 0.75 hours"}
    ]}
  ]
}
